Counter-ions that a name gives are not always drawn. Like-named read-outs stand apart in the source and are kept apart here.
Experiments:
BCL-2 = BCL-2 (Homo sapiens (Human), UniProt P10415); experiment: Protein-protein interaction assay BCL-2/Bad BH3 peptide (BCL-2 assay, TR-FRET); format: binding; details: read-out: BCL-2 Assay IC50 (median)
Summary of the method: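 His-tagged BCL-2 (aa 1-211, E. coli, 1 nM) preincubated 10 min at 22° C with compound (0.1 nM-20 μM), then 1 nM biotinylated Bad BH3 peptide with anti-His-Eu/streptavidin-XL665 added. Buffer: 50 mM Tris pH 7, 100 mM NaCl, 50 mM KF, 2 mM DTT. Incubated 1 h at 22° C, then overnight at 4° C. 665/620 ratio normalized; IC50 by 4-parameter fit.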

SUDHL10 cells = experiment: Induction of caspase-3/7 activity in SUDHL10 cells (Assay 4); format: cell-based; details: caspase-3/7 induction, 3 h, read-out: Caspase SUDHL10 EC50 (median)
Summary of the method: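 Caspase-3/7 activity measured in DLBCL lines after 3 h compound exposure at 37 °C, following overnight plating; Caspase-Glo 3/7 luminescence read after 1 h at 37 °C. Medium-only background subtracted, values normalized to mean of DMSO-treated cells.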

SUDHL5 cells = experiment: Induction of cytotoxicity in SUDHL5 cells (Assay 6); format: cell-based; details: 5 h, CellTiter-Glo, read-out: Cytotox SUDHL5 IC50 (median)
Summary of the method: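 Run alongside apoptosis measurements, this cytotoxicity readout used cells treated with compound for 5 h at 37 °C and quantified ATP-based luminescence with CellTiter-Glo.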

HMC-1-8 cells = experiment: Antiproliferation assay HMC-1-8 (Assay 7); format: cell-based
Summary of the method: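 Cells are plated alongside a time-zero reference plate and held overnight at 37 °C. Treated plates are incubated 72 h, then ATP-based luminescence (CellTiter-Glo) is read. IC50 uses day 0 as baseline and DMSO as untreated control.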

[1] = 72 h, CellTiter-Glo, read-out: Antiproli HMC-1-8 IC50 median

Chain of BCL-2 (P10415 1-211): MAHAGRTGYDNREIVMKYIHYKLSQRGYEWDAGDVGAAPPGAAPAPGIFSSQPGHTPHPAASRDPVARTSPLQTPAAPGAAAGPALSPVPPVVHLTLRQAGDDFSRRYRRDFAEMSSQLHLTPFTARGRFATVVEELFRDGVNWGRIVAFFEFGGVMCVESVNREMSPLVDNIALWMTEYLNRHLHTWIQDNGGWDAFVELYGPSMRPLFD

Structure (SMILES)	IC50 (BCL-2) [µM]	EC50 (SUDHL10 cells; Homo sapiens, SU-DHL10, 3 h) [µM]	IC50 (SUDHL5 cells; Homo sapiens, SU-DHL-5, 5 h) [µM]	IC50 (HMC-1-8 cells; [1]) [µM]	EC50 (SUDHL10 cells) [µM]	IC50 (SUDHL5 cells) [µM]	IC50 (HMC-1-8 cells; read-out: Antiproli HMC-1-8 IC50 median; 72 h, CellTiter-Glo) [µM]
Cc1c2c(nn1C)C(CCN1CCOCC1)OCCCCn1c(C(=O)O)c(CCCOc3cccc4cc(F)ccc34)c3ccc(F)c-2c31 (single isomer, unassigned; enantiomer 2) [Example 21, 4-fluoro-7-{3-[(6-fluoronaphthalen-1-yl)oxy]propyl}-2,3-dimethyl-15-[2-(morpholin-4-yl)ethyl]-2,10,11,12,13,15-hexahydropyrazolo[4′,3′:9,10][1,6]oxazacycloundecino[8,7,6-hi]indole-8-carboxylic Acid (Enantiomer 2)]	> 20	13	12	13.3			
CCc1c2c(nn1C)C(CCN1CCC(F)(F)C1)OCCCCn1c(C(=O)O)c(CCCOc3cccc4cc(F)ccc34)c3ccc(Cl)c-2c31 (single isomer, unassigned; enantiomer 2) [Example 57, 4-chloro-15-[2-(3,3-difluoropyrrolidin-1-yl)ethyl]-3-ethyl-7-{3-[(6-fluoronaphthalen-1-yl)oxy]propyl}-2-methyl-2,10,11,12,13,15-hexahydropyrazolo[4′,3′:9,10][1,6]oxazacycloundecino[8,7,6-hi]indole-8-carboxylic Acid N-ethylethanamine Salt (Enantiomer 2)]	> 20				7.7	6.8	13.6
Cc1c2c(nn1C)C(CCN1CCOCC1)OCCCCn1c(C(=O)O)c(CCCOc3cccc4cc(F)ccc34)c3ccc(Cl)c-2c31 (single isomer, unassigned; enantiomer 2) [Example 18, 4-chloro-7-{3-[(6-fluoronaphthalen-1-yl)oxy]propyl}-2,3-dimethyl-15-[2-(morpholin-4-yl)ethyl]-2,10,11,12,13,15-hexahydropyrazolo[4′,3′:9,10][1,6]oxazacycloundecino[8,7,6-hi]indole-8-carboxylic Acid (Enantiomer 2)]	> 20	2.3	0.53	12.5			
